# In patent US20040087792A1, “Tryptase-inhibitors” (priority 2001, published 2004):
# Where a name gives a salt, the structure may show the parent alone.
# Molecular target: human tryptase
# Assay: Inhibition of human tryptase (equilibrium, chromogenic substrate tos-Gly-Pro-arg-pNA)
# Type: biochemical
# Details: in the presence of substrate; heparin 0.1-50 μg/ml; cleavage monitored at 405 nm; read-out: Klapp (apparent dissociation constant Kiapp)
# Source text: The documented pathophysiological effects of mast cell tryptase are caused directly by the enzymatic activity of the protease. Accordingly, they are reduced or blocked by inhibitors which inhibit the enzymatic activity of the tryptase. A suitable measure for the affinity of a reversible inhibitor to the target protease is the equilibrium dissociation constant Ki of the enzyme-inhibitor complex. This Ki value can be determined via the effect of the inhibitor on the tryptase-induced cleavage of a chromogenic peptide-p-nitroanilide substrate or a fluorogenic peptide-aminomethylcoumarin substrate.
# The dissociation constants for the tryptase-inhibitor complexes are determined under equilibrium conditions in accordance with the general proposals of Bieth (Bieth J G, Pathophysiological Interpretation of kinetic constants of protease inhibitors, Bull. Europ. Physiopath. Resp. 16:183-195, 1980) and the methods of Sommerhoff et al. (Sommerhoff C P et al., A Kazal-type inhibitor of human mast cell tryptase: Isolation from the medical leech Hirudo medicinalis, characterization, and sequence analysis, Biol. Chem. Hoppe-Seyler 375: 685-694, 1994).
# Human tryptase is isolated from lung tissue or prepared recombinantly; the specific activity of the protease, determined by titration, is usually greater than 85% of the theoretical value. […]
row,Ki [nM],SMILES
1,35,"CCOC(=O)CN(CCNC(=O)OCC#Cc1ccc(C#CCOC(=O)NCCN(CC(=O)OCC)C(=O)CCc2ccc(CN)cc2)cc1)C(=O)CCc1ccc(CN)cc1 [Compound 1, 1,4-Bis-{N-[3-(4-aminomethyl-phenyl)-propionyl]-N-(ethoxycarbonyl-methyl)-amino-3-(ethyl-aminocarbonyloxy)-prop-1-ynyl}-benzene dihydrochloride]"
2,5.4,"CCOC(=O)CN(CCNC(=O)OCC#CCOC(=O)NCCN(CC(=O)OCC)C(=O)CCc1ccc(CN)cc1)C(=O)CCc1ccc(CN)cc1 [Compound 3, 1,4-Bis{N-[3-(4-(aminomethyl-phenyl)-propionyl]-N-(ethoxycarbonyl-methyl)-amino-3-(ethyl-aminocarbonyloxy)}-2-butynedihydrochloride]"
